# The source made the active and inactive calls. The calls are words filed in the database; no cut-off is given here.
# What was measured:
# Vaccinia virus [1] = assay: Antiviral activity against Vaccinia virus WR harboring HIV gag gene infected in HeLaS3 cells at 30 uM as continuous infusion in hollow-fiber infection model after 72 hrs by ELISA; format: functional, organism-based; details: Orthopoxvirus vaccinia, HeLa S3
# Vaccinia virus [2] = assay: Antiviral activity against Vaccinia virus WR harboring HIV gag gene infected in HeLaS3 cells at 30 uM administered as intermittent infusion over 1 hr measured in hollow-fiber infection model after 72 hrs by ELISA; format: functional, organism-based; details: Orthopoxvirus vaccinia, HeLa S3
# Vaccinia virus [3] = assay: Antiviral activity against Vaccinia virus WR harboring HIV gag gene infected in HeLaS3 cells at 100 uM as continuous infusion in hollow-fiber infection model after 72 hrs by ELISA; format: functional, organism-based; details: Orthopoxvirus vaccinia, HeLa S3
# Vaccinia virus [4] = assay: Antiviral activity against Vaccinia virus WR harboring the HIV gag gene infected in HeLaS3 cells assessed as inhibition of viral replication in hollow-fiber infection model by plaque assay; format: functional, organism-based; details: Orthopoxvirus vaccinia, HeLa S3
# Vaccinia virus [5] = assay: Antiviral activity against Vaccinia virus WR harboring the HIV gag gene infected in HeLaS3 cells after 3 to 5 days by plaque assay; format: functional, organism-based; details: Orthopoxvirus vaccinia, HeLa S3
# Vaccinia virus [6] = assay: Antiviral activity against Vaccinia virus WR harboring HIV gag gene infected in HeLaS3 cells compound administered as bolus infusion equivalent to 100 uM continuous infusion in hollow-fiber infection model after 72 hrs by ELISA; format: functional, Orthopoxvirus vaccinia, HeLa S3
# Vaccinia virus [7] = assay: Antiviral activity against Vaccinia virus WR harboring HIV gag gene infected in HeLaS3 cells at 3 uM as continuous infusion in hollow-fiber infection model after 72 hrs by ELISA; format: functional, organism-based; details: Orthopoxvirus vaccinia, HeLa S3
# Vaccinia virus [8] = assay: Antiviral activity against Vaccinia virus WR harboring HIV gag gene infected in HeLaS3 cells at 3 uM administered as intermittent infusion over 1 hr measured after 72 hrs in hollow-fiber infection model by ELISA; format: functional, organism-based; details: Orthopoxvirus vaccinia, HeLa S3
# Vaccinia virus [9] = assay: Antiviral activity against Vaccinia virus WR harboring the HIV gag gene infected in HeLaS3 cells assessed as inhibition of viral replication in hollow-fiber infection model at >= 50 uM as continuous infusion by plaque assay; format: functional, organism-based; details: Orthopoxvirus vaccinia, HeLa S3
# Vaccinia virus [10] = assay: Antiviral activity against Vaccinia virus WR harboring HIV gag gene infected in HeLaS3 cells at 100 uM administered as intermittent infusion over 1 hr measured in hollow-fiber infection model after 72 hrs by ELISA; format: functional, organism-based; details: Orthopoxvirus vaccinia, HeLa S3
smiles,measurement,setting,value
Nc1ccn(C[C@@H](CO)OCP(=O)(O)O)c(=O)n1.O.O [CIDOFOVIR],Activity,Vaccinia virus [1],inactive
same,Activity,Vaccinia virus [2],inactive
same,Activity,Vaccinia virus [3],inactive
same,IC50,Vaccinia virus [4],38 µM
same,EC50,Vaccinia virus [5],30.9 µM
same,Activity,Vaccinia virus [6],81%
same,Activity,Vaccinia virus [7],inactive
same,Activity,Vaccinia virus [8],inactive
same,inhibition,Vaccinia virus [9],Active
same,Activity,Vaccinia virus [10],inactive
